Source: patent US20240190944A1, “MODIFIED CELLS FOR THE PRODUCTION OF A RECOMBINANT PRODUCT OF INTEREST” (Genentech, Inc., priority 2021, published 2024)

Columns and labels:
Assay type in all cases: cell-based, Chinese Hamster
empty host CHO-K1 cells = test: Growth of empty host CHO-K1 cells in seed train media with PDGFRa inhibitor and/or insulin
Excerpt: (§1) FIGS. 3A-3D. PDGFRa signaling is important for cell growth, e.g., CHO cell growth, and growth factor signaling is intact after PDGFRa inhibition. FIG. 3A is a schematic of PDGFRa and insulin receptor (IR) signaling upstream of protein synthesis, cell cycle progression and cell proliferation. Bolder arrows indicate stronger activation by respective receptors. FIG. 3B depicts empty CHO-K1 host cells VCC and % viability after 4 days in the presence or absence of PDGFRa inhibitor and/or insulin in the seed train media. FIG. 3C depicts western blot analysis of empty host CHO-K1 cells (of FIG. 3B) after 4 days in the presence or absence of PDGFRa inhibitor and/or insulin in the seed train media. FIG. 3D depicts Day 12 relative IVCC, % viability, relative titer and relative Qp of mAb2-expressing CHO-K 1 cells in the presence of PDGFRa inhibitor and/or insulin during production.
FIGS. 4A-4D. FIG. 4A depicts empty host CHO-K1 cells viable cell count (VCC) and % viability after 4 days in increasing PDGFRa inhibitor concentrations in the seed train media. FIG. 4B depicts western blot analysis of empty host CHO-K1 cells after 4 days in increasing PDGFRa inhibitor concentrations in the seed train media. FIG. 4C depicts western blot analysis mAb2-expressing CHO-K 1 cells in production in the presence or absence of PERK inhibitor at 10 μM concentration. […]

[1] = system: mAb2-expressing CHO-K1 cells; test: Fed-batch production of mAb2-expressing CHO cell line with PDGFRa inhibitor and/or insulin
Excerpt: as §1
Fed-batch production cultures were performed with proprietary chemically defined medium using different vessels (tube-spin and AMBR15) along with bolus feeds on Days 3, 7 and 10 as previously mentioned (Hsu, Aulakh, Traul, & Yuk, 2012). […] Titers were determined using Protein-A affinity chromatography with UV detection. Percent viability and viable cell count were determined using a Vi-Cell XR instrument (Beckman Coulter Item #383721). […]

PDGFRa = test: Chemical UPR induction in CHO cultures, PDGFRa western blot and qPCR; conditions: mAb1-expressing CHO DG44 and CHO-K1 seed train cultures; optimal pH
Excerpt: FIGS. 1A-1G. […] FIG. 1C depicts western blot analysis of two mAb1-expressing host cell lines, CHO DG44 and CHO-K1, treated with chemical UPR inducers: tunicamycin and DTT. FIG. 1D depicts qPCR analysis of PDGFRa mRNA levels in both host cell lines of FIG. 1C treated with tunicamycin and DTT. FIG. 1E depicts western blot analysis of mAb1-expressing CHO-K1 cells treated with tunicamycin to activate the UPR in the presence of UPR pathway-specific inhibitors. […] FIG. 1F depicts qPCR analysis of PDGFRa mRNA levels in CHO-K1 cells treated with tunicamycin in the presence of UPR pathway-specific inhibitors. FIG. 1G depicts western blot analysis of WT and PERK KO empty host CHO-K1 (Clone 9) cell lines treated with tunicamycin and PERK inhibitor.
FIGS. 2A-2E. FIG. 2A depicts western blot analysis of mAb1-expressing CHO-K1 cells treated with thapsigargin to activate the UPR in the presence of different UPR pathway-specific inhibitors. […]
An interesting phenomenon was previously described where activation of UPR in seed train culture, triggered by lower pH conditions in a particular CHO cell line, negatively affected culture growth in production media at target pH (Tung, et al., 2018). When exposed to low pH conditions, high intracellular BiP levels were detected in this cell line that correlated to low growth profiles during production and poor bioprocess outcomes (Tung, et al., 2018). […]

Molecule: COc1cc2ncc(-c3ccccc3)nc2cc1OC [PDGFRa inhibitor, AG-1296]
- reduction of cell growth (empty host CHO-K1 cells; 20 μM, 4 days): approximately 50%
- cell growth and cell viability in fed-batch production ([1]; PDGFRa inhibition on Day 3): significantly decreased cell growth, without affecting cell viability

Molecule: Tunicamycin
- fully functional PDGFRa levels (protein and mRNA) (PDGFRa): reduced at both the protein and mRNA levels

Molecule: insulin
- cellular growth of cultures treated with the PDGFRa inhibitor after addition of insulin (empty host CHO-K1 cells): partially rescued cellular growth
- cell growth inhibition in production culture after addition of insulin ([1]; insulin on Day 3, PDGFRa inhibited): partially rescued the observed cell growth inhibition
